These results are taken from PMC8126888 (RSC Medicinal Chemistry, 2020).

Series [1] relates to primary peritoneal mouse macrophages (PMM). The series can be described thus: cells. The conditions noted are these: Macrophage, read-out: PMM IC50 (uM).
Series [2] is described as follows: in vitro. The conditions noted are these: human, microsomes, pH 7.4, HLM CLint (uL/min/mg), human liver microsomes. (Liver microsomes are vesicles of endoplasmic reticulum, rich in cytochrome P450 enzymes.)
A short description of series [3]: in vitro. The conditions noted are these: mouse, microsomes, pH 7.4, MLM CLint (uL/min/mg), mouse liver microsomes.
Series [4] can be described thus: physchem. The conditions noted are these: HPLC, Ascentis Express RP Amide column, pH 7.4, eLogD, experimental.
Series [5] in a line: in vitro. Particulars: human.
The nature of series [6]: in vitro. Particulars: human, HFF-1 cells.
Series [7] is described as follows: in vitro. Particulars: human, HepG2 cells.
The nature of series [8]: in vitro. Particulars: PAMPA. Background: In PAMPA a lipid-coated filter parts donor from acceptor wells.
The subject of series [9] is Leishmania infantum MHOM/MA(BE)/67/ITMAP263 intracellular amastigotes. The series can be described thus: microbe, parasite or virus in culture. Particulars: Macrophage, in Mus musculus.
Series [10] has as its system Trypanosoma cruzi, Tulahuen CL2, beta-galactosidase strain. As to the kind of experiment: microbe, parasite or virus in culture. The conditions noted are these: MRC5, read-out: T. cruzi Tulahuen C4 (LacZ) IC50 (uM).
The mark [11] stands for this setting: read-out: L. Inf. pIC50, from L. infantum intracellular amastigote IC50 (converted).
[12] abbreviates: read-out: L. infantum MHOM/MA(BE)/67/ITMAP263 intracellular amastigotes IC50 (uM), intracellular amastigotes.

Structures are written as SMILES. Read-outs that look alike come from different tables or passages of the source. A value given as a limit tells only on which side of the number the result lay.

A word on the microsomal CLint: it is a measure of how fast metabolising enzymes remove a compound, apart from limits set by blood flow. Read a low microsomal CLint as greater metabolic stability. For orientation: chromatographic logD means lipophilicity estimated from chromatographic retention. Read a low chromatographic logD as a more hydrophilic compound. As a reminder, the Papp is a coefficient for how fast a substance crosses the barrier.

With `COc1ccc(C(=O)N2CCN(C)CC2)cc1S(=O)(=O)N(Cc1ccc(F)cc1)Cc1ccc(F)cc1` [DNDI0003371173], the IC50 was 32 µM in series [1], 0.537 µM in series [9] (setting [11]), 0.54 µM in series [9] (setting [12]) and 11.1 µM in series [10]. Also, the microsomal CLint at 0.5 μM in series [2] was 585 µL/min/mg; in [3] it was 2240 µL/min/mg. This compound also displayed a chromatographic logD in [4] of 4.7. The compound also returned a CC50 at 3 days in [5] of 25.8 µM. Besides, the CC50 stood at 4.16 µM in series [6] and 49.5 µM in series [7]. The compound also returned a Papp in [8] of 3.23 ×10⁻⁶ cm/s.

Turning to `COc1ccc(C(=O)N(C)CCO)cc1S(=O)(=O)N(Cc1ccc(F)cc1)Cc1ccc(F)cc1` [DNDI0003371175], the IC50 in series [1] is more than 64 µM; in [9] (setting [11]), 2.09 µM; in series [9] (setting [12]) it was 2.08 µM; in [10], 25.3 µM. Moreover, the results for the microsomal CLint at 0.5 μM in series [2] and in series [3] were 498 µL/min/mg and 605 µL/min/mg, respectively. This compound registered a chromatographic logD in series [4] of 3.8. The compound further returned a CC50 at 3 days in [5] of more than 64 µM. In addition, the CC50 in series [6] was found to be 60.2 µM; in series [7] it was 57.6 µM. Further, in series [8], the Papp stood at 11.2 ×10⁻⁶ cm/s.

Consider `COc1ccc(C(=O)NCCO)cc1S(=O)(=O)N(Cc1ccc(F)cc1)Cc1ccc(F)cc1` [DNDI0003371176], for which the IC50 in series [1] is more than 64 µM; in series [9] (setting [11]), 2.51 µM; in series [9] (setting [12]), 2.53 µM; in [10], 44.3 µM. Moreover, the microsomal CLint at 0.5 μM came to 131 µL/min/mg in [2] and 410 µL/min/mg in [3]. Besides, the chromatographic logD in series [4] was 3.8. The compound also returned a CC50 at 3 days in series [5] of more than 64 µM. Also, the CC50 in series [6] and in [7] was more than 64 µM each time. Further, the Papp in series [8] was 5.78 ×10⁻⁶ cm/s.

For `COCCNC(=O)c1ccc(OC)c(S(=O)(=O)N(Cc2ccc(F)cc2)Cc2ccc(F)cc2)c1` [DNDI0003371177], the IC50 in [1] is more than 64 µM; in series [9] (setting [11]), 1.02 µM; in series [9] (setting [12]), 1.03 µM; in series [10], 40.4 µM. Also, the microsomal CLint at 0.5 μM in series [2] stood at 407 µL/min/mg; in series [3], 1670 µL/min/mg. The same compound had a chromatographic logD in series [4] of 4.1. Also, in [5], the CC50 at 3 days is more than 64 µM. In addition, the CC50 in series [6] is more than 64 µM; in series [7], 54.1 µM. Moreover, the Papp in [8] came out at 8.63 ×10⁻⁶ cm/s.

As to `COc1ccc(C(=O)N2CCOCC2)cc1S(=O)(=O)N(Cc1ccc(F)cc1)Cc1ccc(F)cc1` [DNDI0003371178], the IC50 in series [1] is more than 64 µM; in [9] (setting [11]) it was 1.02 µM; in series [9] (setting [12]), 1.02 µM; in [10] it was 50.7 µM. The results for the microsomal CLint at 0.5 μM in series [2] and in series [3] were 997 µL/min/mg and 984 µL/min/mg, respectively. In addition, in [4], the chromatographic logD is 4. For the same compound, the CC50 at 3 days in series [5] was more than 64 µM. The CC50 in [6] stood at 46.9 µM; in [7], 44.5 µM. The compound also had a Papp in [8] of 9.35 ×10⁻⁶ cm/s.

For the compound `COc1ccc(CN(Cc2ccc(F)cc2)S(=O)(=O)c2cc(F)ccc2OCCN(C)C)cc1` [DNDI0003378485], the IC50 in series [1] was 8 µM; in series [9] (setting [11]), 3.24 µM; in [9] (setting [12]), 3.24 µM; in series [10] it was 6.96 µM. Besides, the microsomal CLint at 0.5 μM amounted to 183 µL/min/mg in series [2] and 1080 µL/min/mg in series [3]. For the same compound, the chromatographic logD in [4] was 5. In addition, the CC50 at 3 days in [5] was found to be 6.43 µM. The CC50 in series [6] came to 1.95 µM; in [7], 9.1 µM. This compound also had an apparent permeability coefficient (Papp) in series [8] of 0.29 ×10⁻⁶ cm/s.

`COc1ccc(-c2nc(C)no2)cc1S(=O)(=O)N(Cc1ccc(F)cc1)Cc1ccc(F)cc1` [DNDI0003388085]: the IC50 in series [1] is more than 64 µM; in series [9] (setting [11]) it was 5.62 µM; in series [9] (setting [12]), 5.68 µM; in series [10] it was more than 64 µM. In addition, the microsomal CLint at 0.5 μM in series [2] worked out at 177 µL/min/mg; in [3], 739 µL/min/mg. In addition, the chromatographic logD in series [4] amounted to 4.6. In series [5], this compound yielded a CC50 at 3 days of more than 64 µM. The CC50 in [6] was 38.6 µM; in [7] it was more than 64 µM. The same compound showed an apparent permeability (Papp) in series [8] of 1.74 ×10⁻⁶ cm/s.

Consider `COc1ccc(OC)c(S(=O)(=O)N(Cc2ccc(F)cc2)C2CCOCC2)c1` [DNDI0003388086], for which the IC50 in series [1] was more than 64 µM; in series [9] (setting [11]) it was more than 64 µM; in series [9] (setting [12]) it was more than 64 µM; in [10], 45 µM. Also, the microsomal CLint at 0.5 μM in series [2] is 49 µL/min/mg; in series [3], 599 µL/min/mg. In series [4], the chromatographic logD was determined as 3.7. In [5], this compound returned a CC50 at 3 days of more than 64 µM. For the same compound, the CC50 in [6] and in [7] was more than 64 µM throughout. In series [8], the Papp was found to be 31.9 ×10⁻⁶ cm/s.

Turning to `COc1ccc(CNC2COC2)cc1S(=O)(=O)N(Cc1ccc(F)cc1)Cc1ccc(F)cc1` [DNDI0003389115], the IC50 was more than 64 µM in [1], 1.78 µM in series [9] (setting [11]), 1.79 µM in [9] (setting [12]) and 14.4 µM in series [10]. For the same compound, the intrinsic clearance (microsomal CLint) at 0.5 μM came out at 147 µL/min/mg in [2] and 384 µL/min/mg in series [3]. This compound also yielded a chromatographic logD in series [4] of 4. The compound also gave a CC50 at 3 days in [5] of 41.7 µM. The CC50 was 51.7 µM in series [6] and more than 64 µM in [7]. The apparent permeability coefficient (Papp) in [8] came out at 3.42 ×10⁻⁶ cm/s.

As to `COc1ccc(CN2CCC(F)(F)CC2)cc1S(=O)(=O)N(Cc1ccc(F)cc1)Cc1ccc(F)cc1` [DNDI0003389116], the IC50 in [1] was 45.2 µM; in series [9] (setting [11]), 3.16 µM; in series [9] (setting [12]), 3.18 µM; in [10], 2.93 µM. Further, the microsomal CLint at 0.5 μM in [2] was determined as 984 µL/min/mg; in series [3], 1760 µL/min/mg. This compound displayed a chromatographic logD in series [4] of 4.8. The compound also gave a CC50 at 3 days in series [5] of more than 64 µM. In addition, the CC50 in series [6] was 18.2 µM; in [7], more than 64 µM. Besides, the Papp in series [8] worked out at 0.4 ×10⁻⁶ cm/s.

For the compound `CN(C)c1ncccc1S(=O)(=O)N(Cc1ccc(F)cc1)Cc1ccc(F)cc1` [DNDI0003389117], the IC50 in series [1] is more than 64 µM; in [9] (setting [11]), 6.03 µM; in series [9] (setting [12]), 5.99 µM; in series [10], 12.6 µM. Further, the microsomal CLint at 0.5 μM in series [2] came to 728 µL/min/mg; in series [3] it was 903 µL/min/mg. In [4], this compound gave a chromatographic logD of 4.6. In series [5], this compound displayed a CC50 at 3 days of 42.7 µM. For the same compound, the CC50 in [6] was 16.7 µM; in series [7], 56.7 µM. Further, in series [8], the Papp was found to be 1.18 ×10⁻⁶ cm/s.

On to `COc1ccc(N2CCOCC2)cc1S(=O)(=O)N(Cc1ccc(F)cc1)Cc1ccc(F)cc1` [DNDI0003389118], for which the IC50 in series [1] was more than 64 µM; in series [9] (setting [11]) it was 0.324 µM; in series [9] (setting [12]), 0.32 µM; in series [10] it was 7.91 µM. Moreover, the microsomal CLint at 0.5 μM amounted to 82 µL/min/mg in series [2] and 488 µL/min/mg in series [3]. Besides, in series [4], the chromatographic logD came out at 4.3. Further, the CC50 at 3 days in series [5] was more than 64 µM. The CC50 is 15.2 µM in series [6] and more than 64 µM in [7]. In series [8], this compound yielded a Papp of 2.55 ×10⁻⁶ cm/s.

Take `O=S(=O)(c1cccnc1N1CCOCC1)N(Cc1ccc(F)cc1)Cc1ccc(F)cc1` [DNDI0003389119]: the IC50 is more than 64 µM in series [1], 2.82 µM in [9] (setting [11]), 2.83 µM in series [9] (setting [12]) and 15.1 µM in series [10]. In addition, the figures for the microsomal CLint at 0.5 μM in series [2] and in [3] were 823 µL/min/mg and 738 µL/min/mg, respectively. This compound came in with a chromatographic logD in [4] of 4.5. The CC50 at 3 days in [5] is more than 64 µM. Besides, the CC50 is 29.4 µM in series [6] and more than 64 µM in series [7]. This compound also showed a Papp in [8] of 3.63 ×10⁻⁶ cm/s.
